# Data reported in patent US20050255096A1, “Combination treatment for acute myocardial infarction” (priority 2002, published 2005).
# Tested on: patients with acute myocardial infarction
# Assay: Effect of the combination on the mortality of the patients with acute myocardial infarction (180 day mortality)
# Assay type: in vivo
# Conditions: 6-hour infusion of levosimendan, bolus 6, 12 or 24 μg/kg then 0.1, 0.2 or 0.4 μg/kg/min
# Description: Effect of the combination on the mortality of the patients with acute myocardial infarction
# Patients who had suffered from acute myocardial infarction within five days received placebo or a 6-hour infusion of levosimendan using a bolus of 6, 12 or 24 μg/kg and subsequent infusion of 0.1, 0.2 or 0.4 μg/kg/min. Patients were divided according to whether they had received thrombolytic therapy or not. The 180 day mortality was measured. It can be seen that the combination provided synergistic reduction in the mortality of patients with acute myocardial infarction.
# [1] = patients who did not receive thrombolytic, N = 331
# [2] = patients who received thrombolytic, N = 70
structure (smiles),measurement,setting,value
"CC1CC(=O)NN=C1c1ccc(NN=C(C#N)C#N)cc1 (single isomer, unassigned; (-)) [Levosimendan, (−)-enantiomer of [[4-(1,4,5,6-tetrahydro-4-methyl-6-oxo-3-pyridazinyl)phenyl]hydrazono]propanedinitrile]","180-day mortality, Event (%)",[1],24.8%
same,"180-day mortality, Event n",[1],82
same,"180-day mortality, Event (%)",[2],12.8%
same,"180-day mortality, Event n",[2],9
